Measurements reported in patent USRE39591E1, “6-O-substituted ketolides having antibacterial activity” (Abbott Laboratories, priority 1996, dated 2007).
≈ marks a conversion by molar mass, not a printed value.

Tested on: up to 32 different microorganisms
Experiment: in vitro antibacterial activity (MIC), agar dilution on Brain Heart Infusion (BHI) agar with Steers replicator
Assay type: cell-based
Conditions: unit assumed
Procedure, shortened: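 Twelve plates carried successive aqueous dilutions of test compound in BHI agar; inocula were 1:100 dilutions (1:10 for slow growers such as Micrococcus, Streptococcus), incubated 35°-37° C for 20 to 24 hours. MIC was the lowest concentration giving no growth, slight haze, or sparse isolated colonies versus growth control.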

[1] = Candida albicans CCH 442 (code TT)
[2] = Enterococcus faecism ATCC 8043 (code II)
[3] = Escherichia coli DC-2 (code SS)
[4] = Escherichia coli JUHL (code QQ)
[5] = Haemophilis influenzae DILL AMP R (code WW)
[6] = Micrococcus luteus ATCC 4698 (code PP)
[7] = Micrococcus luteus ATCC 9341 (code OO)
[8] = Mycobacterium smegmatis ATCC 114 (code UU)
[9] = Nocardia Asteroides ATCC9970 (code VV)
[10] = Staphylococcus aureus 1775 (code GG)
[11] = Staphylococcus aureus A5177 (code BB)
[12] = Staphylococcus aureus A-5278 (code CC)
[13] = Staphylococcus aureus ATCC 6538P (code AA)
[14] = Staphylococcus aureus CMX 553 (code FF)
[15] = Staphylococcus aureus CMX 642A (code DD)
[16] = Staphylococcus aureus NCTC10649M (code EE)
[17] = Staphylococcus epidermidis 3519 (code HH)
[18] = Streptococcus Pneumonia 5649 (code ZZA)
[19] = Streptococcus Pneumonia 5979 (code ZZ)
[20] = Streptococcus Pneumonia ATCC6303 (code XX)
[21] = Streptococcus Pneumonia GYR 1171 (code YY)
[22] = Streptococcus agalactiae CMX 508 (code KK)
[23] = Streptococcus bovis A-5169 (code JJ)
[24] = Streptococcus pyogenes 930 (code MM)
[25] = Streptococcus pyogenes EES61 (code LL)
[26] = Streptococcus pyogenes PIU 2548 (code NN)

For `CCC1OC(=O)C(C)C(=O)C(C)C(OC2OC(C)CC(N(C)C)C2O)C(C)(OCC=Cc2cnc3ccc(C#N)cc3c2)CC(C)C(=O)C(C)C2NC(=O)OC12C` (centres unmarked) [Example 218, R is —CH2CH═CH-(6-cyano-3-quinolyl)], the MIC (organism code AA) was 0.1 µg/mL (≈ 0.126 µM), the MIC (organism code BB) was 0.1 µg/mL (≈ 0.126 µM) and the MIC (organism code CC) was greater than 100 µg/mL. It also gave an MIC (organism code DD) of 0.1 µg/mL (≈ 0.126 µM), an MIC (organism code EE) of 0.1 µg/mL (≈ 0.126 µM) and an MIC (organism code FF) of 0.1 µg/mL (≈ 0.126 µM). For the same compound, the MIC (organism code GG) was greater than 100 µg/mL, the MIC (organism code HH) was 0.01 µg/mL (≈ 0.0126 µM) and the MIC (organism code II) was 0.05 µg/mL (≈ 0.0632 µM). It also gave an MIC (organism code JJ) of 0.01 µg/mL (≈ 0.0126 µM), an MIC (organism code KK) of 0.01 µg/mL (≈ 0.0126 µM) and an MIC (organism code LL) of 0.01 µg/mL (≈ 0.0126 µM). It also gave an MIC (organism code MM) of 6.2 µg/mL (≈ 7.84 µM), an MIC (organism code NN) of 0.2 µg/mL (≈ 0.253 µM) and an MIC (organism code OO) of 0.05 µg/mL (≈ 0.0632 µM). The MIC (organism code PP) was 0.05 µg/mL (≈ 0.0632 µM), the MIC (organism code QQ) was 50 µg/mL (≈ 63.2 µM) and the MIC (organism code RR) was 0.39 µg/mL (≈ 0.493 µM). The MIC (organism code SS) was greater than 100 µg/mL, the MIC (organism code TT) was greater than 100 µg/mL and the MIC (organism code UU) was 0.78 µg/mL (≈ 0.986 µM). The MIC (organism code VV) was 0.05 µg/mL (≈ 0.0632 µM), the MIC (organism code XX) was 0.015 µg/mL (≈ 0.019 µM) and the MIC (organism code YY) was 0.015 µg/mL (≈ 0.019 µM). For the same compound, the MIC (organism code ZZ) was 4 µg/mL (≈ 5.06 µM) and the MIC (organism code ZZA) was 0.25 µg/mL (≈ 0.316 µM).

`CC[C@H]1OC(=O)[C@H](C)C(=O)[C@H](C)[C@@H](O[C@@H]2O[C@H](C)C[C@H](N(C)C)[C@H]2O)[C@@](C)(OCCNCCc2ccccc2)C[C@@H](C)C(=O)[C@H](C)[C@H]2NC(=O)O[C@@]21C` [Example 222, Compound of Formula (IX): L is CO, T is NH, R is —CH2CH2NHCH2CH2Phenyl] showed an MIC (organism code AA) of 0.2 µg/mL, an MIC (organism code BB) of 0.1 µg/mL and an MIC (organism code CC) greater than 100 µg/mL. The MIC (organism code DD) was 0.39 µg/mL, the MIC (organism code EE) was 0.2 µg/mL and the MIC (organism code FF) was 0.2 µg/mL. It also gave an MIC (organism code GG) greater than 100 µg/mL, an MIC (organism code HH) of 0.2 µg/mL and an MIC (organism code II) of 0.02 µg/mL. The MIC (organism code JJ) was no more than 0.005 µg/mL, the MIC (organism code KK) was 0.02 µg/mL and the MIC (organism code LL) was no more than 0.005 µg/mL. It also gave an MIC (organism code MM) greater than 100 µg/mL, an MIC (organism code NN) of 0.39 µg/mL and an MIC (organism code OO) of 0.01 µg/mL. For the same compound, the MIC (organism code PP) was 0.2 µg/mL, the MIC (organism code QQ) was 25 µg/mL and the MIC (organism code RR) was 0.1 µg/mL. It also gave an MIC (organism code SS) of 25 µg/mL, an MIC (organism code TT) greater than 100 µg/mL and an MIC (organism code UU) of 0.78 µg/mL. It also gave an MIC (organism code VV) of 0.2 µg/mL, an MIC (organism code WW) of 4 µg/mL and an MIC (organism code XX) of 0.03 µg/mL. For the same compound, the MIC (organism code YY) was 0.06 µg/mL, the MIC (organism code ZZ) was greater than 128 µg/mL and the MIC (organism code ZZA) was 2 µg/mL.

`C=C(C#CCO[C@@]1(C)C[C@@H](C)C(=O)[C@H](C)[C@H]2NC(=O)O[C@]2(C)[C@@H](CC)OC(=O)[C@H](C)C(=O)[C@H](C)[C@H]1O[C@@H]1O[C@H](C)C[C@H](N(C)C)[C@H]1O)c1ccccc1` [Example 257, Compound of Formula (IX): L is CO, T is NH, R is —CH2—C≡C-(1-phenylethenyl)] was tested, and the MIC (organism code AA) was 0.2 µg/mL, the MIC (organism code BB) was 0.2 µg/mL and the MIC (organism code CC) was greater than 100 µg/mL. It also gave an MIC (organism code DD) of 0.2 µg/mL, an MIC (organism code EE) of 0.2 µg/mL and an MIC (organism code FF) of 0.2 µg/mL. The MIC (organism code GG) was greater than 100 µg/mL, the MIC (organism code HH) was 0.2 µg/mL and the MIC (organism code II) was 0.1 µg/mL. For the same compound, the MIC (organism code JJ) was 0.01 µg/mL, the MIC (organism code KK) was 0.05 µg/mL and the MIC (organism code LL) was 0.01 µg/mL. It also gave an MIC (organism code MM) of 100 µg/mL, an MIC (organism code NN) of 0.2 µg/mL and an MIC (organism code OO) of 0.05 µg/mL. The MIC (organism code PP) was 0.2 µg/mL, the MIC (organism code QQ) was greater than 100 µg/mL and the MIC (organism code RR) was 0.78 µg/mL. For the same compound, the MIC (organism code SS) was greater than 100 µg/mL, the MIC (organism code TT) was greater than 100 µg/mL and the MIC (organism code UU) was 0.39 µg/mL. The MIC (organism code VV) was 0.2 µg/mL, the MIC (organism code WW) was 8 µg/mL and the MIC (organism code XX) was 0.125 µg/mL. It also gave an MIC (organism code YY) of 0.125 µg/mL, an MIC (organism code ZZ) of 128 µg/mL and an MIC (organism code ZZA) of 0.5 µg/mL.

`CCC1OC(=O)C(C)C(=O)C(C)C(OC2OC(C)CC(N(C)C)C2O)C(C)(OCC2CC2c2cnc3ccccc3c2)CC(C)C(=O)C(C)C2NC(=O)OC12C` (centres unmarked) [Example 243, Compound of Formula (IX): L is CO, T is NH, R is —CH2(2-(3-quinolyl)cyclopropyl)] gave an MIC (organism code AA) of 0.05 µg/mL, an MIC (organism code BB) of 0.05 µg/mL and an MIC (organism code CC) greater than 100 µg/mL. The MIC (organism code DD) was 0.05 µg/mL, the MIC (organism code EE) was 0.1 µg/mL and the MIC (organism code FF) was 0.05 µg/mL. It also gave an MIC (organism code GG) greater than 100 µg/mL, an MIC (organism code HH) of 0.1 µg/mL and an MIC (organism code II) of 0.02 µg/mL. For the same compound, the MIC (organism code JJ) was 0.02 µg/mL, the MIC (organism code KK) was 0.02 µg/mL and the MIC (organism code LL) was 0.02 µg/mL. For the same compound, the MIC (organism code MM) was 6.2 µg/mL, the MIC (organism code NN) was 0.1 µg/mL and the MIC (organism code OO) was 0.02 µg/mL. It also gave an MIC (organism code PP) of 0.02 µg/mL, an MIC (organism code QQ) of 50 µg/mL and an MIC (organism code RR) of 0.2 µg/mL. The MIC (organism code SS) was 50 µg/mL, the MIC (organism code TT) was greater than 100 µg/mL and the MIC (organism code UU) was 0.39 µg/mL. It also gave an MIC (organism code VV) of 0.05 µg/mL, an MIC (organism code WW) of 4 µg/mL and an MIC (organism code XX) of 0.03 µg/mL. It also gave an MIC (organism code YY) of 0.03 µg/mL, an MIC (organism code ZZ) of 128 µg/mL and an MIC (organism code ZZA) of 0.25 µg/mL.

Work on `CCC1OC(=O)C(C)C(=O)C(C)C(OC2OC(C)CC(N(C)C)C2O)C(C)(OCC=Cc2cnc3ccccc3c2)CC(C)C(=O)C(C)C2N(CCN(C)C)C(=O)OC12C` (centres unmarked) [Example 182, Compound of Formula (IX): L is CO, T is N (CH2CH2N(CH3)2), R is —CH2CH═CH(3-quinolyl)] yielded an MIC [1] greater than 100 µg/mL, an MIC [2] of 0.1 µg/mL and an MIC [3] greater than 100 µg/mL. The MIC [4] was greater than 100 µg/mL, the MIC (Escherichia coli SS (code RR)) was 0.39 µg/mL and the MIC [5] was 8 µg/mL. The MIC [6] was 0.39 µg/mL, the MIC [7] was 0.02 µg/mL and the MIC [8] was 0.39 µg/mL. The MIC [9] was 0.2 µg/mL, the MIC [10] was greater than 100 µg/mL and the MIC [11] was 0.2 µg/mL. It also gave an MIC [12] greater than 100 µg/mL, an MIC [13] of 0.39 µg/mL and an MIC [14] of 0.39 µg/mL. The MIC [15] was 0.39 µg/mL, the MIC [16] was 0.39 µg/mL and the MIC [17] was 0.78 µg/mL. The MIC [18] was 2 µg/mL, the MIC [19] was greater than 128 µg/mL and the MIC [20] was 0.125 µg/mL. For the same compound, the MIC [21] was 0.25 µg/mL, the MIC [22] was 0.05 µg/mL and the MIC [23] was 0.01 µg/mL. The MIC [24] was 100 µg/mL, the MIC [25] was 0.01 µg/mL and the MIC [26] was 0.39 µg/mL.

`CC[C@H]1OC(=O)[C@H](C)C(=O)[C@H](C)[C@@H](O[C@@H]2O[C@H](C)C[C@H](N(C)C)[C@H]2O)[C@@](C)(OCC=Cc2ccc(F)cc2)C[C@@H](C)C(=O)[C@H](C)[C@@H](O)[C@]1(C)O` [Example 174, Compound of Formula (VIII): X is O, R is CH2—CH═CH-(4-fluorophenyl)] gave an MIC [1] greater than 100 µg/mL, an MIC [2] of 3.1 µg/mL and an MIC [3] greater than 100 µg/mL. The MIC [4] was greater than 100 µg/mL, the MIC (Escherichia coli SS (code RR)) was 12.5 µg/mL and the MIC [5] was 128 µg/mL. The MIC [6] was 0.78 µg/mL, the MIC [7] was 0.39 µg/mL and the MIC [8] was 3.1 µg/mL. For the same compound, the MIC [9] was 0.78 µg/mL, the MIC [10] was greater than 100 µg/mL and the MIC [11] was 3.1 µg/mL. It also gave an MIC [12] greater than 100 µg/mL, an MIC [13] of 3.1 µg/mL and an MIC [14] of 3.1 µg/mL. The MIC [15] was 3.1 µg/mL, the MIC [16] was 3.1 µg/mL and the MIC [17] was 3.1 µg/mL. The MIC [18] was 2 µg/mL, the MIC [19] was greater than 128 µg/mL and the MIC [20] was 1 µg/mL. It also gave an MIC [21] of 1 µg/mL, an MIC [22] of 0.39 µg/mL and an MIC [23] of 0.2 µg/mL. For the same compound, the MIC [24] was greater than 100 µg/mL, the MIC [25] was 0.39 µg/mL and the MIC [26] was 1.56 µg/mL.
